In patent publication US20260166128A1, “HUMAN AMYLIN ANALOG, AND DERIVATIVE THEREOF AND USE THEREOF” (priority 2022, published 2026):
Numbered stars: 1 amine (or outer) side, 2 acyl side, 3 side chain; on linkers, the order of the positions; unused ones are H or OH. Bridge positions count the residues as written; N and C are the ends. Square brackets hold non-standard residues; d marks the D form. Side chains are listed from the residue outwards. Peptide text beside a SMILES is read from it. * marks the point of attachment. C20 diacid = O=C(O)CCCCCCCCCCCCCCCCCCC(=O)*; C18 diacid = O=C(O)CCCCCCCCCCCCCCCCC(=O)*; γGlu = O=C(O)[C@H](CCC(=O)[*:2])N[*:1]; Hyp = O=C(O)[C@@H]1C[C@@H](O)CN1; X3 = O=C(C1CCC(CN[*:1])CC1)[*:2]; Orn = NCCC[C@H](N)C(=O)O; Dab = NCC[C@H](N)C(=O)O; AEEA = NCCOCCOCC(=O)O; Inp = O=C(O)C1CCNCC1

Molecular target: T1, human amylin receptor (Homo sapiens, UniProt O60896+P30988)
T1 construct: host or cells: CHO-K1/Ga15/AMY3 cells, further stably transfected with a CRE-luciferase plasmid
T1 sequence (P30988 25-474): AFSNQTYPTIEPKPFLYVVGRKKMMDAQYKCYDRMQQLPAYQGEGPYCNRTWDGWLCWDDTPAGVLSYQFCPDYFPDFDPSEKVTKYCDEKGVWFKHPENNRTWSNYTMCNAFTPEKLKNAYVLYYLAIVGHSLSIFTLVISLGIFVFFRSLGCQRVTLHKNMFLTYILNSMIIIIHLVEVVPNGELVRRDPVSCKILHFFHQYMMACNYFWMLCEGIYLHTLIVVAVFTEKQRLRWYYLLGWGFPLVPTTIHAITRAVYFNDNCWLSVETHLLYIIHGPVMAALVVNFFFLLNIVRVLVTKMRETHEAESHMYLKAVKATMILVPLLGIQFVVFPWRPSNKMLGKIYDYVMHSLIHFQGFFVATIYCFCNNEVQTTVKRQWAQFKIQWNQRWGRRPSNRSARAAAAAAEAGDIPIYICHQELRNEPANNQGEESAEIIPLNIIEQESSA
T1 sequence (O60896 24-148 partner): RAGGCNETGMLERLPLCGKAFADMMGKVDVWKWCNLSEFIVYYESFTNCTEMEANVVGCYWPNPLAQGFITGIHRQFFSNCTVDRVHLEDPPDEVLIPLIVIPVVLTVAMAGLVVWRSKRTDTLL
Assay: Luciferase assay of amylin derivatives in amylin receptor/CRE-luc CHO cell line
Assay type: cell-based
Conditions: CHO-K1/Ga15/AMY3 CRE-luc cells, 24 hours incubation, F12 medium containing 10% FBS; read-out: EC50
Method: The experiment was intended to detect the activity or efficacy of the amylin derivatives on a human amylin receptor in vitro by luciferase assay.
50 μL of growth medium (F12 medium containing 10% FBS) was added into each well of a white 96-well plate, and the stably transfected amylin/CRE-lue CHO cells were inoculated into the white 96-well plate at a density of about 20,000 cells/well for activity determination.

Row | Structure (SMILES) | EC50 [nM]
1 | CC[C@H](C)[C@H](NC(=O)[C@H](CCCCNC(=O)COCCOCCNC(=O)CC[C@H](NC(=O)CCCCCCCCCCCCCCCCC(=O)O)C(=O)O)NC(=O)CNC(=O)[C@H](CC(C)C)NC(=O)[C@H](CC(N)=O)NC(=O)[C@H](CC(N)=O)NC(=O)[C@H](CO)NC(=O)[C@H](CO)NC(=O)[C@H](Cc1c[nH]cn1)NC(=O)[C@H](CCCNC(=N)N)NC(=O)[C@H](CC(C)C)NC(=O)[C@H](Cc1ccccc1)NC(=O)[C@H](CC(=O)O)NC(=O)[C@H](C)NC(=O)[C@H](CC(C)C)NC(=O)[C@H](CCCNC(=N)N)NC(=O)[C@H](CCC(N)=O)NC(=O)[C@@H](NC(=O)[C@H](C)NC(=O)[C@@H]1CSSC[C@H](NC(=O)[C@@H](N)CCCNC(=N)N)C(=O)N[C@@H](CC(N)=O)C(=O)N[C@@H]([C@@H](C)O)C(=O)N[C@@H](C)C(=O)N[C@@H]([C@@H](C)O)C(=O)N1)[C@@H](C)O)C(=O)N[C@@H](CC(C)C)C(=O)N1CCC[C@H]1C(=O)N1CCC[C@H]1C(=O)N[C@H](C(=O)N[C@@H](CC(N)=O)C(=O)N[C@H](C(=O)NCC(=O)N[C@@H](CO)C(=O)N[C@@H](CC(N)=O)C(=O)N[C@H](C(=O)N1C[C@H](O)C[C@H]1C(N)=O)[C@@H](C)O)C(C)C)[C@@H](C)O [PD121] (H-RCNTATCATQRLADFLRHSSNNLGK([AEEA-γGlu-C18 diacid])ILPPTNVGSNT[Hyp]-NH2; disulfide 2-7) | 0.018
2 | CC[C@H](C)[C@H](NC(=O)[C@@H]1CCCN1C(=O)[C@H](CCCCN)NC(=O)[C@H](CC(C)C)NC(=O)[C@H](CC(N)=O)NC(=O)[C@H](CC(N)=O)NC(=O)[C@H](CO)NC(=O)[C@H](CO)NC(=O)[C@H](Cc1c[nH]cn1)NC(=O)[C@H](CCCNC(=N)N)NC(=O)[C@H](CC(C)C)NC(=O)[C@H](Cc1ccccc1)NC(=O)[C@H](CC(=O)O)NC(=O)[C@H](C)NC(=O)[C@H](CC(C)C)NC(=O)[C@H](CCCNC(=N)N)NC(=O)[C@H](CCC(N)=O)NC(=O)[C@@H](NC(=O)[C@H](C)NC(=O)[C@@H]1CSSC[C@H](NC(=O)[C@H](CCCCN)NC(=O)C2CCN(C(=O)COCCOCCNC(=O)COCCOCCNC(=O)CCCCCCCCCCCCCCCCCCC(=O)O)CC2)C(=O)N[C@@H](CC(N)=O)C(=O)N[C@@H]([C@@H](C)O)C(=O)N[C@@H](C)C(=O)N[C@@H]([C@@H](C)O)C(=O)N1)[C@@H](C)O)C(=O)N[C@@H](CC(C)C)C(=O)N1CCC[C@H]1C(=O)N1CCC[C@H]1C(=O)N[C@H](C(=O)N[C@@H](CC(N)=O)C(=O)N[C@H](C(=O)NCC(=O)N[C@@H](CO)C(=O)N[C@@H](CC(N)=O)C(=O)N[C@H](C(=O)N1CCC[C@H]1C(N)=O)[C@@H](C)O)C(C)C)[C@@H](C)O [PD192] ({C20 diacid-AEEA-AEEA-Inp}-KCNTATCATQRLADFLRHSSNNLKPILPPTNVGSNTP-NH2; disulfide 2-7 (inferred)) | 0.087
3 | CC[C@H](C)[C@H](NC(=O)[C@@H]1CCCN1C(=O)[C@H](CCN)NC(=O)[C@H](CC(C)C)NC(=O)[C@H](CC(N)=O)NC(=O)[C@H](CC(N)=O)NC(=O)[C@H](CO)NC(=O)[C@H](CO)NC(=O)[C@H](Cc1c[nH]cn1)NC(=O)[C@H](CCCNC(=N)N)NC(=O)[C@H](CC(C)C)NC(=O)[C@H](Cc1ccccc1)NC(=O)[C@H](CC(=O)O)NC(=O)[C@H](C)NC(=O)[C@H](CC(C)C)NC(=O)[C@H](CCCNC(=N)N)NC(=O)[C@H](CCC(N)=O)NC(=O)[C@@H](NC(=O)[C@H](C)NC(=O)[C@@H]1CSSC[C@H](NC(=O)[C@H](CCCCN)NC(=O)CC[C@H](NC(=O)CCCCCCCCCCCCCCCCCCC(=O)O)C(=O)O)C(=O)N[C@@H](CC(N)=O)C(=O)N[C@@H]([C@@H](C)O)C(=O)N[C@@H](C)C(=O)N[C@@H]([C@@H](C)O)C(=O)N1)[C@@H](C)O)C(=O)N[C@@H](CC(C)C)C(=O)N1CCC[C@H]1C(=O)N1CCC[C@H]1C(=O)N[C@H](C(=O)N[C@@H](CC(N)=O)C(=O)N[C@H](C(=O)NCC(=O)N[C@@H](CO)C(=O)N[C@@H](CC(N)=O)C(=O)N[C@H](C(=O)N1CCC[C@H]1C(N)=O)[C@@H](C)O)C(C)C)[C@@H](C)O [PD169] ({C20 diacid-γGlu}-KCNTATCATQRLADFLRHSSNNL[Dab]PILPPTNVGSNTP-NH2; disulfide 2-7 (inferred)) | 0.039
4 | CC[C@H](C)[C@H](NC(=O)[C@@H]1CCCN1C(=O)CNC(=O)[C@H](CCCCNC(=O)COCCOCCNC(=O)COCCOCCNC(=O)CC[C@H](NC(=O)CCCCCCCCCCCCCCCCCCC(=O)O)C(=O)O)NC(=O)[C@H](CC(N)=O)NC(=O)[C@H](CC(N)=O)NC(=O)[C@H](CO)NC(=O)[C@H](CO)NC(=O)[C@H](Cc1c[nH]cn1)NC(=O)[C@H](CCCNC(=N)N)NC(=O)[C@H](CC(C)C)NC(=O)[C@H](Cc1ccccc1)NC(=O)[C@H](CC(=O)O)NC(=O)[C@H](C)NC(=O)[C@H](CC(C)C)NC(=O)[C@H](CCCNC(=N)N)NC(=O)[C@H](CCC(N)=O)NC(=O)[C@@H](NC(=O)[C@H](C)NC(=O)[C@@H]1CSSC[C@H](NC(=O)[C@@H](N)CCCNC(=N)N)C(=O)N[C@@H](CC(N)=O)C(=O)N[C@@H]([C@@H](C)O)C(=O)N[C@@H](C)C(=O)N[C@@H]([C@@H](C)O)C(=O)N1)[C@@H](C)O)C(=O)N[C@@H](CC(C)C)C(=O)N1CCC[C@H]1C(=O)N1CCC[C@H]1C(=O)N[C@H](C(=O)N[C@@H](CC(N)=O)C(=O)N[C@H](C(=O)NCC(=O)N[C@@H](CO)C(=O)N[C@@H](CC(N)=O)C(=O)N[C@H](C(=O)N1C[C@H](O)C[C@H]1C(N)=O)[C@@H](C)O)C(C)C)[C@@H](C)O [PD083] (H-RCNTATCATQRLADFLRHSSNNK([AEEA-AEEA-γGlu-C20 diacid])GPILPPTNVGSNT[Hyp]-NH2; disulfide 2-7) | 0.037
5 | CC[C@H](C)[C@H](NC(=O)[C@@H]1CCCN1C(=O)C1CCC(CNC(=O)[C@H](CC(C)C)NC(=O)[C@H](CC(N)=O)NC(=O)[C@H](CC(N)=O)NC(=O)[C@H](CO)NC(=O)[C@H](CO)NC(=O)[C@H](Cc2c[nH]cn2)NC(=O)[C@H](CCCNC(=N)N)NC(=O)[C@H](CC(C)C)NC(=O)[C@H](Cc2ccccc2)NC(=O)[C@H](CC(=O)O)NC(=O)[C@H](C)NC(=O)[C@H](CC(C)C)NC(=O)[C@H](CCCNC(=N)N)NC(=O)[C@H](CCC(N)=O)NC(=O)[C@@H](NC(=O)[C@H](C)NC(=O)[C@@H]2CSSC[C@H](NC(=O)[C@H](CCCCN)NC(=O)CC[C@H](NC(=O)CCCCCCCCCCCCCCCCCCC(=O)O)C(=O)O)C(=O)N[C@@H](CC(N)=O)C(=O)N[C@@H]([C@@H](C)O)C(=O)N[C@@H](C)C(=O)N[C@@H]([C@@H](C)O)C(=O)N2)[C@@H](C)O)CC1)C(=O)N[C@@H](CC(C)C)C(=O)N1CCC[C@H]1C(=O)N1CCC[C@H]1C(=O)N[C@H](C(=O)N[C@@H](CC(N)=O)C(=O)N[C@H](C(=O)NCC(=O)N[C@@H](CO)C(=O)N[C@@H](CC(N)=O)C(=O)N[C@H](C(=O)N1CCC[C@H]1C(N)=O)[C@@H](C)O)C(C)C)[C@@H](C)O (stereo partly shown) [PD173] ({C20 diacid-γGlu}-KCNTATCATQRLADFLRHSSNNL[X3]PILPPTNVGSNTP-NH2; disulfide 2-7) | 0.064
6 | CC[C@H](C)[C@H](NC(=O)[C@@H]1CCCN1C(=O)CNC(=O)[C@H](CCCCNC(=O)COCCOCCNC(=O)CC[C@H](NC(=O)CCCCCCCCCCCCCCCCCCC(=O)O)C(=O)O)NC(=O)[C@H](CC(N)=O)NC(=O)[C@H](CC(N)=O)NC(=O)[C@H](CO)NC(=O)[C@H](CO)NC(=O)[C@H](Cc1c[nH]cn1)NC(=O)[C@H](CCCNC(=N)N)NC(=O)[C@H](CC(C)C)NC(=O)[C@H](Cc1ccccc1)NC(=O)[C@H](CC(=O)O)NC(=O)[C@H](C)NC(=O)[C@H](CC(C)C)NC(=O)[C@H](CCCNC(=N)N)NC(=O)[C@H](CCC(N)=O)NC(=O)[C@@H](NC(=O)[C@H](C)NC(=O)[C@@H]1CSSC[C@H](NC(=O)[C@@H](N)CCCNC(=N)N)C(=O)N[C@@H](CC(N)=O)C(=O)N[C@@H]([C@@H](C)O)C(=O)N[C@@H](C)C(=O)N[C@@H]([C@@H](C)O)C(=O)N1)[C@@H](C)O)C(=O)N[C@@H](CC(C)C)C(=O)N1CCC[C@H]1C(=O)N1CCC[C@H]1C(=O)N[C@H](C(=O)N[C@@H](CC(N)=O)C(=O)N[C@H](C(=O)NCC(=O)N[C@@H](CO)C(=O)N[C@@H](CC(N)=O)C(=O)N[C@H](C(=O)N1C[C@H](O)C[C@H]1C(N)=O)[C@@H](C)O)C(C)C)[C@@H](C)O [PD110] (H-RCNTATCATQRLADFLRHSSNNK([AEEA-γGlu-C20 diacid])GPILPPTNVGSNT[Hyp]-NH2; disulfide 2-7) | 0.039
7 | CC[C@H](C)[C@H](NC(=O)[C@@H]1CCCN1C(=O)[C@H](CCCN)NC(=O)[C@H](CC(C)C)NC(=O)[C@H](CC(N)=O)NC(=O)[C@H](CC(N)=O)NC(=O)[C@H](CO)NC(=O)[C@H](CO)NC(=O)[C@H](Cc1c[nH]cn1)NC(=O)[C@H](CCCNC(=N)N)NC(=O)[C@H](CC(C)C)NC(=O)[C@H](Cc1ccccc1)NC(=O)[C@H](CC(=O)O)NC(=O)[C@H](C)NC(=O)[C@H](CC(C)C)NC(=O)[C@H](CCCNC(=N)N)NC(=O)[C@H](CCC(N)=O)NC(=O)[C@@H](NC(=O)[C@H](C)NC(=O)[C@@H]1CSSC[C@H](NC(=O)[C@H](CCCCN)NC(=O)CC[C@H](NC(=O)CCCCCCCCCCCCCCCCCCC(=O)O)C(=O)O)C(=O)N[C@@H](CC(N)=O)C(=O)N[C@@H]([C@@H](C)O)C(=O)N[C@@H](C)C(=O)N[C@@H]([C@@H](C)O)C(=O)N1)[C@@H](C)O)C(=O)N[C@@H](CC(C)C)C(=O)N1CCC[C@H]1C(=O)N1CCC[C@H]1C(=O)N[C@H](C(=O)N[C@@H](CC(N)=O)C(=O)N[C@H](C(=O)NCC(=O)N[C@@H](CO)C(=O)N[C@@H](CC(N)=O)C(=O)N[C@H](C(=O)N1CCC[C@H]1C(N)=O)[C@@H](C)O)C(C)C)[C@@H](C)O [PD170] ({C20 diacid-γGlu}-KCNTATCATQRLADFLRHSSNNL[Orn]PILPPTNVGSNTP-NH2; disulfide 2-7 (inferred)) | 0.041
